Test results taken from US10202361B2, “Pyridazinones as herbicides” (E I DU PONT DE NEMOURS AND COMPANY, priority 2014, dated 2019).

Assays:
Assay type in all cases: in vivo
[1] = system: chickweed (common chickweed, Stellaria media); assay: Test C postemergence greenhouse herbicide test
Text: At the same time, plants selected from these crop and weed species and also barley (winter barley, Hordeum vulgare), canarygrass (Phalaris minor), windgrass (Apera spica-venti), deadnettle (henbit deadnettle, Lamium amplexicaule), and chickweed (common chickweed, Stellaria media) were planted in pots containing Redi-Earth® planting medium (Scotts Company, 14111 Scottslawn Road, Marysville, Ohio 43041) comprising spaghnum peat moss, vermiculite, wetting agent and starter nutrients and treated with postemergence applications of test chemicals formulated in the same manner. Plants ranged in height from 2 to 18 cm (1- to 4-leaf stage) for postemergence treatments. Treated plants and controls were maintained in a greenhouse for 13 to 15 d, after which time all species were compared to controls and visually evaluated. Plant response ratings, summarized in Table C, are based on a scale of 0 to 100 where 0 is no effect and 100 is complete control. A dash (-) response means no test result.

[2] = system: lambsquarters (Chenopodium album); assay: Test C pre-/postemergence greenhouse herbicide test; conditions: Postemergence
How it was run: (§1)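 Plant response is scored on a 0–100 scale, where 100 means complete control, by visual comparison with controls 13 to 15 d after greenhouse treatment. Applications are made pre- and postemergence using a surfactant-containing, non-phytotoxic solvent formulation.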

[3] = system: ragweed (common ragweed, Ambrosia elatior); assay: as above; conditions: Ambrosia artemisiifolia, post-emergence, Ragweed, Postemergence, read-out: Plant response rating
How it was run: as §1

[4] = system: nutsedge, yellow (yellow nutsedge, Cyperus esculentus); assay: as above; conditions: Cyperus, post-emergence, Nutsedge, Yellow, Postemergence, read-out: Plant response rating
How it was run: as §1

[5] = system: oat, wild (wild oat, Avena fatua); assay: as above; conditions: Postemergence
How it was run: as §1

[6] = system: corn (Zea mays); assay: as above; conditions: Zea mays, post-emergence, Corn, Postemergence, read-out: Plant response rating
How it was run: as §1

[7] = system: pigweed (Amaranthus retroflexus); assay: as above; conditions: Amaranthus retroflexus, post-emergence, Pigweed, Postemergence, read-out: Plant response rating
How it was run: as §1

[8] = system: oilseed rape (Brassica napus); assay: as above; conditions: Oilseed Rape, Postemergence
How it was run: as §1

[9] = system: kochia (Kochia scoparia); assay: as above; conditions: Postemergence
How it was run: as §1

[10] = system: ryegrass, Italian (Italian ryegrass, Lolium multiflorum); assay: as above; conditions: Lolium multiflorum, post-emergence, Ryegrass, Italian, Postemergence, read-out: Plant response rating
How it was run: as §1

[11] = system: johnsongrass (Sorghum halepense); assay: as above; conditions: Sorghum halepense, post-emergence, Johnsongrass, Postemergence, read-out: Plant response rating
How it was run: as §1

[12] = system: galium (catchweed bedstraw, Galium aparine); assay: as above; conditions: post-emergence, Galium, Postemergence, read-out: Plant response rating
How it was run: as §1

[13] = system: crabgrass, Large (large crabgrass, Digitaria sanguinalis); assay: as above; conditions: Digitaria sanguinalis, post-emergence, Crabgrass, Large, Postemergence, read-out: Plant response rating
How it was run: as §1

Cc1cc(Oc2ccnc(C(F)(F)F)c2)nn(-c2ccc(C(F)(F)F)cc2)c1=O [Compound 6, 4-methyl-2-[4-(trifluoromethyl)phenyl]-6-[[2-(trifluoromethyl)-4-pyridinyl]oxy]-3(2H)-pyridazinone]
Plant response rating ([1]; 31 g ai/ha): 80 | Plant response rating ([1]; 62 g ai/ha): 95 | Plant response rating ([1]; 125 g ai/ha): 95 | Plant response rating ([1]; 250 g ai/ha): 98 | Plant response rating ([2]; 31 g ai/ha): 75 | Plant response rating ([2]; 62 g ai/ha): 90 | Plant response rating ([2]; 125 g ai/ha): 95 | Plant response rating ([2]; 250 g ai/ha): 95 | pest or weed control at 31 g/ha ([3]; 31 g ai/ha): 50% | pest or weed control at 62 g/ha ([3]; 62 g ai/ha): 55% | pest or weed control at 125 g/ha ([3]; 125 g ai/ha): 80% | pest or weed control at 250 g/ha ([3]; 250 g ai/ha): 80% | pest or weed control at 31 g/ha ([4]; 31 g ai/ha): 5% | pest or weed control at 62 g/ha ([4]; 62 g ai/ha): 5% | pest or weed control at 125 g/ha ([4]; 125 g ai/ha): 5% | pest or weed control at 250 g/ha ([4]; 250 g ai/ha): 15% | Plant response rating ([5]; 31 g ai/ha): 20 | Plant response rating ([5]; 62 g ai/ha): 25 | Plant response rating ([5]; 125 g ai/ha): 25 | Plant response rating ([5]; 250 g ai/ha): 50 | plant injury at 31 g/ha ([6]; 31 g ai/ha): 15% | plant injury at 62 g/ha ([6]; 62 g ai/ha): 25% | plant injury at 125 g/ha ([6]; 125 g ai/ha): 25% | plant injury at 250 g/ha ([6]; 250 g ai/ha): 35% | pest or weed control at 31 g/ha ([7]; 31 g ai/ha): 85% | pest or weed control at 62 g/ha ([7]; 62 g ai/ha): 95% | pest or weed control at 125 g/ha ([7]; 125 g ai/ha): 95% | pest or weed control at 250 g/ha ([7]; 250 g ai/ha): 95% | Plant response rating ([8]; 31 g ai/ha): 85 | Plant response rating ([8]; 62 g ai/ha): 85 | Plant response rating ([8]; 125 g ai/ha): 95 | Plant response rating ([8]; 250 g ai/ha): 95 | Plant response rating ([9]; 31 g ai/ha): 90 | Plant response rating ([9]; 62 g ai/ha): 90 | Plant response rating ([9]; 125 g ai/ha): 90 | Plant response rating ([9]; 250 g ai/ha): 95 | pest or weed control at 31 g/ha ([10]; 31 g ai/ha): 5% | pest or weed control at 62 g/ha ([10]; 62 g ai/ha): 10% | pest or weed control at 125 g/ha ([10]; 125 g ai/ha): 15% | pest or weed control at 250 g/ha ([10]; 250 g ai/ha): 35% | pest or weed control at 31 g/ha ([11]; 31 g ai/ha): 5% | pest or weed control at 62 g/ha ([11]; 62 g ai/ha): 10% | pest or weed control at 125 g/ha ([11]; 125 g ai/ha): 20% | pest or weed control at 250 g/ha ([11]; 250 g ai/ha): 40% | pest or weed control at 31 g/ha ([12]; 31 g ai/ha): 90% | pest or weed control at 62 g/ha ([12]; 62 g ai/ha): 90% | pest or weed control at 125 g/ha ([12]; 125 g ai/ha): 90% | pest or weed control at 250 g/ha ([12]; 250 g ai/ha): 90% | pest or weed control at 31 g/ha ([13]; 31 g ai/ha): 10% | pest or weed control at 62 g/ha ([13]; 62 g ai/ha): 20% | pest or weed control at 125 g/ha ([13]; 125 g ai/ha): 30% | pest or weed control at 250 g/ha ([13]; 250 g ai/ha): 35%
